Residues, ends and D or L forms follow the SMILES beside them.
System: A. baumannii AB5075
Assay: Transcriptomic analysis (RNA-Seq) of bacteria
Format: cell-based, Acinetobacter baumannii
Conditions: for log2FC, gene ABUW_RS01945 (acyl-CoA thioesterase II) / log2FC, gene ABUW_RS02545 (acyl-CoA thioesterase) / log2FC, gene ABUW_RS05045 (acyl-CoA thioesterase) / log2FC, gene ABUW_RS17575 (acyl-CoA thioesterase): pathway Fatty Acid and Lipid Degradation
[1] = H vs Cont, 1h, RNA-Seq A. baumannii AB5075
[2] = H vs Cont, 4h, RNA-Seq A. baumannii AB5075
[3] = H, 4h vs 1h, RNA-Seq A. baumannii AB5075
[4] = L vs Cont, 1h, RNA-Seq A. baumannii AB5075
[5] = L vs Cont, 4h, RNA-Seq A. baumannii AB5075

## CC[C@@H]1NC(=O)[C@@H](CC(C)C)NC(=O)[C@H](CCN)NC(=O)[C@@H](NC(=O)[C@H](CN)NC(=O)[C@@H](NC(=O)[C@H](CCN)NC(=O)c2ccc(Cl)cc2Cl)[C@@H](C)O)CCNC(=O)[C@H]([C@@H](C)O)NC(=O)[C@H](CCN)NC(=O)[C@H](CCN)NC1=O [Lipopeptide F365] (HELM PEPTIDE1{[O=C(c1ccc(Cl)cc1Cl)[*:2]].[Dab].T.[NC[C@H](N[*:1])C(=O)[*:2]].[Dab].[Dab].[dL].[Abu].[Dab].[Dab].T}$PEPTIDE1,PEPTIDE1,5:R3-11:R2$$$V2.0)
[1]
  logFC (Differential gene expression for all genes), Geneid ABUW_RS00005: 0.01563
  logFC (Differential gene expression for all genes), Geneid ABUW_RS00020: 0.4229
  logFC (Fold change), gene ABUW_RS00010: 0.4611
  logFC (Fold change), gene ABUW_RS00030: -0.6384
  logFC (Fold change), gene ABUW_RS00035: 1.28
  logFC (Fold change), gene recF (ABUW_RS00015): -0.2583
H vs Cont, 1h
  log2FC, gene ABUW_RS01945 (acyl-CoA thioesterase II): 0.05276
  log2FC, gene ABUW_RS02545 (acyl-CoA thioesterase): 1.462
  log2FC, gene ABUW_RS05045 (acyl-CoA thioesterase): 0.342
  log2FC, gene ABUW_RS17575 (acyl-CoA thioesterase): -0.4502
[2]
  logFC (Differential gene expression for all genes), Geneid ABUW_RS00005: -0.1188
  logFC (Differential gene expression for all genes), Geneid ABUW_RS00020: 0.1404
  logFC (Fold change), gene ABUW_RS00010: 1.271
  logFC (Fold change), gene ABUW_RS00030: -1.908
  logFC (Fold change), gene ABUW_RS00035: 1.362
  logFC (Fold change), gene recF (ABUW_RS00015): -0.8325
H vs Cont, 4h
  log2FC, gene ABUW_RS01945 (acyl-CoA thioesterase II): -0.9573
  log2FC, gene ABUW_RS02545 (acyl-CoA thioesterase): 1.303
  log2FC, gene ABUW_RS05045 (acyl-CoA thioesterase): 0.7194
  log2FC, gene ABUW_RS17575 (acyl-CoA thioesterase): -2.7329
[3]
  4h_1h logFC (Differential gene expression for all genes), Geneid ABUW_RS00005: -0.4851
  4h_1h logFC (Differential gene expression for all genes), Geneid ABUW_RS00010: 0.8595
  4h_1h logFC (Differential gene expression for all genes), Geneid ABUW_RS00015: -1.098
  4h_1h logFC (Differential gene expression for all genes), Geneid ABUW_RS00020: 0.6821
[4]
  logFC (Differential gene expression for all genes), Geneid ABUW_RS00005: 0.07464
  logFC (Differential gene expression for all genes), Geneid ABUW_RS00020: -0.04639
  logFC (Fold change), gene ABUW_RS00010: 0.04206
  logFC (Fold change), gene ABUW_RS00030: 0.5072
  logFC (Fold change), gene ABUW_RS00035: -0.01907
  logFC (Fold change), gene recF (ABUW_RS00015): 0.05956
L vs Cont, 1h
  log2FC, gene ABUW_RS01945 (acyl-CoA thioesterase II): 0.4901
  log2FC, gene ABUW_RS02545 (acyl-CoA thioesterase): -0.0862
  log2FC, gene ABUW_RS05045 (acyl-CoA thioesterase): -0.2681
  log2FC, gene ABUW_RS17575 (acyl-CoA thioesterase): -0.08172
[5]
  logFC (Differential gene expression for all genes), Geneid ABUW_RS00005: 0.1571
  logFC (Differential gene expression for all genes), Geneid ABUW_RS00020: -0.1135
  logFC (Fold change), gene ABUW_RS00010: 0.2996
  logFC (Fold change), gene ABUW_RS00030: 0.4017
  logFC (Fold change), gene ABUW_RS00035: 0.1258
  logFC (Fold change), gene recF (ABUW_RS00015): -0.3068
L vs Cont, 4h
  log2FC, gene ABUW_RS01945 (acyl-CoA thioesterase II): -0.2225
  log2FC, gene ABUW_RS02545 (acyl-CoA thioesterase): -0.9002

From paper PMC8956739, “A synthetic lipopeptide targeting top-priority multidrug-resistant Gram-negative pathogens” (Nature Communications, 2022)
